Earlier results in patent US20200171025A1, “PHARMACEUTICAL COMPOSITION COMPRISING BREXPIPRAZOLE AND PROCESS FOR PREPARATION THEREOF” (priority 2018, published 2020).

Conditions: as per BCS

O=c1ccc2ccc(OCCCCN3CCN(c4cccc5sccc45)CC3)cc2[nH]1 [Brexpiprazole, 7-{4-[4-(1-Benzothiophen-4-yl)piperazin-1-yl]butoxy}quinolin-2(1H)-one]
Aqueous solubility: low aqueous solubility | Permeability: high permeability
